Source: patent US10017741B2, “Compositions and methods for obtaining enriched mesenchymal stem cell cultures” (StemCell Technologies Inc., priority 2013, dated 2018)
“And” between values parts separate entries of the source, which are not always exact repeats. Identical values can stand only once. “Also recorded” adds a separate entry of the source.

Columns and labels:
[1] = system: BM-derived cultures (macrophage contamination, MSC morphology); assay: Images of BM-derived expansion cultures; format: cell-based, mouse; details: for macrophage contamination and MSC enrichment (images): BM
Description: (§1) c. Expansion of Human BM and Mouse BM and CB-Derived Cells Assay • 1. […] Cultures were allowed to grow for 10-14 days until adherent cells achieved 70 to 80% confluence. Mouse cultures were maintained under normal (5% CO2) or hypoxic conditions (5% CO2/5% O2) at 37 C in a cell culture incubator. Human cultures were maintained under 5% CO2 at 37 C in a humidified cell culture incubator. • 3. Adherent cells were passaged by releasing cultures from flask. Cultures were washed with 5 mL PBS and then 5 mL of 0.25% trypsin solution ([…] catalogue #07901) was added and the flasks incubated for 10 min at 37 C. To each flask, 5 mL complete medium was added to stop trypsin activity. • 4. Released cells were collected into a tube and centrifuged at 300×g for 5 minutes. • 5. Cells were resuspended in 2 mL of medium and counted using a hemocytometer. • 6. […] P1 cultures were incubated until they reached 70 to 80% confluence. • 8. Passaged cultures can be used at any time from P0 to P10 as needed for different applications.

[2] = system: mouse BM-derived cells (MSC colonies); assay: Mouse BM-derived CFU-F assay; format: cell-based; details: 14 days
Description: a. Mouse BM and CB-Derived CFU-F Assay • 1. […] Medium was removed cultures washed with 2 mL PBS. • 4. Cells were fixed by adding 2 mL methanol/well and incubated at room temperature for 5 minutes. • 5. Methanol was removed and plates allowed to air dry for 5 minutes. • 6. To each well, 2 mL Toluidine blue solution was added and incubated for 30 minutes at room temperature. • 7. Toluidine blue solution was removed and wells rinsed with water. • 8. Water was removed and plates allowed to dry. • 9. Colony formation was assessed by enumeration and colony size. Mouse BM-derived cells were isolated as described previously and CFU-F assays setup as described above. […] Cultures were then stained with Toluidine blue and colony formation and appearance assessed. Three independent assays CFU-F assays for both BM- and CB-MSC were setup as in Example 4a and 4b. […] These assays were maintained for 14 days without media change. At the end of day 14, cultures were fixed and stained with toluidine blue and the number of MSC colonies counted.

[3] = system: CB-derived cultures (macrophage contamination, MSC morphology); assay: Images of CB-derived expansion cultures; format: cell-based, mouse; details: for macrophage contamination and MSC enrichment (images): CB
Description: as §1

[4] = system: CB-MSCs (CD45−/CD29+/Sca1+); assay: Total cell count with flow cytometry, CB-MSC cultures; format: cell-based, mouse
Description: (§2) d. Flow Cytometry Analysis • 1. Cultures of BM and CB-derived cells were trypsinized for 10 minutes and an equal volume of complete medium was added to cultures to stop trypsin activity • 2. Cell suspension was filtered through a 40 μm strainer, and cells counted using a hemocytometer • 3. Suspension was spun down at 300×g for 5 minutes. • 4. Supernatant was removed and cell pellet resuspended in FACS buffer (PBS with 2% FBS and 1 mM EDTA) • 5. A total of 1×10^5 cells in 300 μL FACS buffer was used for each flow cytometry analysis tube, including unstained, viability, compensation, and isotype controls. • 6. Cell suspensions were stained with fluorophore-labeled antibodies against CD45, CD11b, and Sca1, CD29, and viability dye. • 7. Cell suspensions were analyzed on a flow cytometer using compensation and isotype control to determine laser voltage and gating. • 8. Samples were gated on viable CD45^+ cells and 10,000 events per sample were collected. Alternatively, cells were gated on viable CD45^− cells and out of this gate the proportion of CD29+/Sca1^+ cells obtained.
Prior to flow cytometry, control and GW2580-treated cultures of BM- and CB-MSC were dissociated from tissue culture flasks by trypsinization and the total number of cells counted with the aid of a hemocytometer. Flow cytometry analysis was performed and the ratio of CD45^− cells and CD45^−/CD29^+/Sca1^+ cells applied to the total number of cells to obtain the actual number of these cells in culture (Table 2).

[5] = system: BM-derived cultures (CD45+/CD11b+ macrophages, Sca1+ monocytes); assay: Flow cytometry of BM-derived expansion cultures; format: cell-based, mouse
Description: as §1, §2

[6] = system: CSF-1-independent cell line, human fibroblasts, and other endothelial cells; details: cited from earlier work
26 other kinases = details: cited from earlier work
[7] = BM-MSC, assay 1, 1 uM GW2580, 1.0 × 10^6 cells plated
[8] = BM-MSC, assay 1, 1 uM GW2580, 2.5 × 10^5 cells plated
[9] = BM-MSC, assay 1, 1 uM GW2580, 5.0 × 10^5 cells plated
[10] = BM-MSC, assay 1, 1 uM GW2580, Sum of the three densities
[11] = BM-MSC, assay 2, 2.5 uM GW2580, 1.0 × 10^6 cells plated
[12] = BM-MSC, assay 2, 2.5 uM GW2580, 2.5 × 10^5 cells plated
[13] = BM-MSC, assay 2, 2.5 uM GW2580, 5.0 × 10^5 cells plated
[14] = BM-MSC, assay 2, 2.5 uM GW2580, Sum of the three densities
[15] = BM-MSC, assay 3, 2.5 uM GW2580, 1.0 × 10^6 cells plated
[16] = BM-MSC, assay 3, 2.5 uM GW2580, 2.5 × 10^5 cells plated
[17] = BM-MSC, assay 3, 2.5 uM GW2580, 5.0 × 10^5 cells plated
[18] = BM-MSC, assay 3, 2.5 uM GW2580, Sum of the three densities
[19] = CB-MSCs, 2.5 uM GW2580, 14 days during P0

In the case of `COc1ccc(COc2ccc(Cc3cnc(N)nc3N)cc2OC)cc1` [GW2580, 5-(3-Methoxy-4-((4-methoxybenzyl)oxy)benzyl)pyrimidine-2,4-diamine], the “macrophage contamination and MSC enrichment (images)” value ([1]; 1 μM continuous P0-P3) was “have reduced numbers of macrophages; also recorded: contain a much reduced number of these contaminating macrophages”, the “macrophage contamination and MSC enrichment (images)” value ([1]; 1 μM, P2) was “a much reduced number of macrophages is observed; also recorded: enriched and mostly devoid of macrophage contamination” and the “macrophage contamination and MSC appearance (images)” value ([1]; BM, 1, 5 and 10 μM) was “have reduced numbers of contaminating macrophages; also recorded: a noticeable decrease in macrophages was noticed”. The “overall minimal increase in number of MSC colonies vs control” value ([2]; BM-MSC, 1 or 2.5 uM, three assays) was no less than 20%, the “% increase in number of MSC colonies vs control” value (shortened to “% increase in number”) [2, 7] was 26% and the “Number of MSC colonies” value [2, 7] was 227. The “% increase in number” value [2, 8] was 26%, the “Number of MSC colonies” value [2, 8] was 103 and the “% increase in number” value [2, 9] was 44%. For the same molecule, the “Number of MSC colonies” value [2, 9] was 201, the “% increase in number” value [2, 10] was 32% and the “Number of MSC colonies” value [2, 10] was 531. For the same molecule, the “% increase in number” value [2, 11] was 21%, the “Number of MSC colonies” value [2, 11] was 34 and the “% increase in number” value [2, 12] was 0%. The “Number of MSC colonies” value [2, 12] was 3, the “% increase in number” value [2, 13] was 109% and the “Number of MSC colonies” value [2, 13] was 23. The “% increase in number” value [2, 14] was 40%, the “Number of MSC colonies” value [2, 14] was 60 and the “% increase in number” value [2, 15] was 50%. The “Number of MSC colonies” value [2, 15] was 60, the “% increase in number” value [2, 16] was 67% and the “Number of MSC colonies” value [2, 16] was 5. For the same molecule, the “% increase in number” value [2, 17] was 70%, the “Number of MSC colonies” value [2, 17] was 17 and the “% increase in number” value [2, 18] was 55%. For the same molecule, the “Number of MSC colonies” value [2, 18] was 82, the “increase in colony number compared to control cultures” value ([2]; BM-derived, 1 μM) was “at least 20%” and the “MSC CFU-F appearance (colony size, macrophages)” value ([2]; BM-derived, 1 μM, Toluidine blue) was “bigger in size and have a much reduced number of macrophages; also recorded: larger, enriched MSC CFU-F that are mostly free of macrophages”. For the same molecule, the “macrophage contamination and MSC enrichment (images)” value ([3]; 1 μM continuous P0-P3) was “have reduced numbers of macrophages; also recorded: contain a much reduced number of these contaminating macrophages”, the “macrophage contamination and MSC enrichment (images)” value ([3]; 1 μM, P2) was “a much reduced number of macrophages is observed; also recorded: enriched and mostly devoid of macrophage contamination” and the “macrophage contamination and MSC appearance (images)” value ([3]; CB, 1, 5 and 10 μM) was “have reduced numbers of contaminating macrophages; also recorded: a noticeable decrease in macrophages was noticed”. For the same molecule, the “increase in number of CD45−/CD29+/Sca1+ MSCs vs control” value ([4]; CB-MSC, 2.5 uM GW2580) was 310%, the “Actual number of cells, CD45−” value [4, 19] was 530,702 and the “Actual number of cells, CD45−/CD29+/Scal+” value [4, 19] was 507,616. For the same molecule, the “CD45−, Percent (Flow Cytometry)” value [4, 19] was 95.45%, the total cells [4, 19] was 5.56E+05 and the “CD45−/CD29+/Scal+, Percent (Flow Cytometry)” value ([4]; CB-MSCs, 2.5 uM GW2580, 14 days during P0, out of CD45− gate) was 95.65%. The “number of CD45+/CD11b+/Sca1+ cells” value ([5]; BM, 1 μM) was 55%, the “number of CD45+ cells” value ([5]; BM, 1 μM (control 52%)) was 45% and the “CD11b+/Sca1+ hematopoietic monocytes, of CD45+ cells” value ([5]; BM, 1 μM P0 to P2) was 44%. For the same molecule, the “CD11b+/Sca1− mature macrophages, of CD45+ cells” value ([5]; BM, 1 μM P0 to P2) was 56%, the “overall reduction in CD45+ cells” value ([5]; BM, 1 μM P0 to P2) was 18% and the “reduction in CD45+/CD11b+/Sca1+ monocyte differentiation into mature macrophage (increase in Sca1+ fraction vs control)” value ([5]; BM, 1 μM P0 to P2) was 36%. For the same molecule, the “CD11b+/Sca1+ hematopoietic monocytes, of CD45+ cells” value ([5]; BM, 1 μM P0 to P3) was 52%, the “CD11b+/Sca1− mature macrophages, of CD45+ cells” value ([5]; BM, 1 μM P0 to P3) was 41% and the “overall reduction in CD45+ cells” value ([5]; BM, 1 μM P0 to P3) was 64%. For the same molecule, the “reduction in CD45+/CD11b+/Sca1+ monocyte differentiation into macrophages (monocytes prevented from differentiating)” value ([5]; BM, 1 μM P0 to P3) was > 50% and 52%, the “reduction in CD45+/CD11b+/Sca1− mature macrophage differentiation” value ([5]; BM, 1 μM, at P3) was greater than 50% and the “number of CD45+/CD11b+/Sca1+ cells” value ([5]; BM, 5 μM) was 40%. The “number of CD45+ cells” value ([5]; BM, 5 μM (control 52%)) was 33%, the “number of CD45+/CD11b+/Sca1+ cells” value ([5]; BM, 10 μM) was 34% and the “number of CD45+ cells” value ([5]; BM, 10 μM (control 52%)) was 28%. For the same molecule, the “CD45+/CD11b+ mature macrophages, of total viable cells” value ([5]; BM, P1, 1 μM) was 60% and 62%, the “reduction in macrophages vs control” value ([5]; BM, P1, 1 μM) was 20% and the “CD45+/CD11b+ mature macrophages, of viable cells” value ([5]; BM-derived cultures, 1 μM up to P2) was less than 1%. For the same molecule, the “sensitivity of CSF-1-independent cell line, human fibroblasts and other endothelial cells to GW2580” value [6] was “highly resistant” and the “activity against 26 other kinases tested” value (26 other kinases) was “inactive”.
